In experiment [1] the test system is human non-small cell lung adenocarcinoma cell line H2087-polypeptide FILDGLYSV
The experiment can be described thus: DC polypeptide vaccine in subcutaneous tumor-modeled NOD/SCID mice. It is filed as in vivo. As to conditions: DCs loaded with the polypeptide, intracutaneous, 2 injections; vs DCs loaded with wild-type polypeptide. The method, then:
(§1) After isolated with Ficoll solution from 600 to 900 ml anticoagulant peripheral blood from a healthy volunteer, the collected PBMCs in a concentration of 2×10^7 cells/0.5 ml were intraperitoneally injected into each of 300 NOD SCID mice without immune leakage, so as to reconstruct a human immune system in the NOD SCID mice, with the mice after 4 weeks selected for subsequent inoculation of the human non-small cell lung adenocarcinoma cell line H2087-polypeptide […] obtained in 6.2.
(§2) The human non-small cell lung adenocarcinoma cell line H2087-polypeptide […] (SEQ ID NO:1) obtained in 6.2 was incubated in DMEM medium containing 10% fetal calf serum, 100 U/mL penicillin and 100 U/mL streptomycin in an incubator under 37° C. and 5% CO2, and then the cells were centrifuged at 3000 rpm for collection. The collected cells were washed with sterile physiological saline three times, and then diluted appropriately. To 40 μl tumor cell suspension, 10 μl 0.4% […] was added for staining, subsequently the tumor cell suspension in a concentration of 1×10^8 cells/ml was prepared after counting under microscope. 100 μl of the tumor cell suspension was inoculated into each of the NOD/SCID mice by subcutaneous injection at 4 weeks post immune reconstruction in 6.3, with daily observation of the presence/absence of infection at inoculation sites, the increase/decrease of tumor size (in the case of presence of a tumor), and measurement of the major axis (a) and the minor axis (b) of a tumor by a vernier caliper every 2 or 3 days (where the tumor size=a×b×b/2). After 7 days from inoculation, a tumor in a size of rice grain was touchable at the inoculation site. After that, the subcutaneous tumor-modeled NOD/SCID mice (modeled with H2087-polypeptide […] (SEQ ID NO:1)) were treated with a polypeptide+complete Freund's adjuvant vaccine, a polypeptide+DCs vaccine, a lentivirus-infected DCs vaccine and a DC-CTL vaccine respectively, with the tumor size and mouse survival rate observed and recorded every 2 days.
Peripheral blood mononuclear cells (PBMCs) in 100 to 150 mL anticoagulant peripheral blood obtained from a healthy volunteer were isolated with Ficoll solution. The collected PBMCs suspended in the RPMI 1640 medium in a concentration of 2×10^6-3×10^6 cells/ml were incubated at 37° C. for 2 hours, obtaining adherent monocytes which can be induced into DCs, and non-adherent peripheral blood lymphocytes (PBLs) for use.
The subcutaneous tumor-modeled NOD/SCID mice obtained in 6.4 of the example were randomly divided into seven groups as below, with 6 mice per group.
For each of the above seven groups, DCs (respectively loaded with the wild-type polypeptide, the mutant polypeptide or each of five mutant polypeptide's variants) were washed with physiological saline three times and then diluted with the physiological saline to a concentration of (4.0±0.5)×10^7 cells/ml, and 0.1 ml of the resulting diluent (in a dosage of (4.0±0.5)×10^6 cells) was administrated to each inner thigh close to the inguen of each mouse by intracutaneous injection, at one week interval for 2 injections in total. The vital signs of the mice were observed after administration, and the major axis (a) and the minor axis (b) of a tumor were measured by a vernier caliper every 2 days for calculation of tumor size according to a formula of a×b×b/2, with the weight change and survival rate observed and recorded.

Experiment [2] has the same test system. The experiment can be described thus: Polypeptide + Freund's adjuvant vaccine in subcutaneous tumor-modeled NOD/SCID mice. It is filed as in vivo. The conditions noted are these: adjuvant+polypeptide 100 μg s.c., 4 immunizations; vs adjuvant alone and adjuvant+wild-type polypeptide groups. The procedure: as §1, §2
The subcutaneous tumor-modeled NOD/SCID mice obtained in 6.4 of the example 6 were divided into 8 groups randomly as below, with 6 mice per group.
After 2 weeks, differently-immunized mice in 7 groups received respective same-dosage booster immunizations at 2 week interval for 4 times in total, with incomplete Freund's adjuvant for the latter three immunizations.
The general characteristics (including mental state, activity, response, diet, body weight and tumor growth) of the mice were observed daily, where the major axis (a) and the minor axis (b) of a tumor were measured by a vernier caliper every 2 days for calculation of tumor size according to a formula of a×b×b/2, where the mouse survival rate in a time period is calculated by the following formula: Survival rate=the number of survival mice/(the number of survival mice+the number of dead mice)×100%.

Experiment [3] shares this test system. Description: Lentivirus-infected DCs vaccine in subcutaneous tumor-modeled NOD/SCID mice. As to conditions: DCs infected with lentivirus expressing the polypeptide, intracutaneous, 2 injections; vs wild-type lentivirus DCs. Format: in vivo. The method, then:
as §1, §2
Peripheral blood mononuclear cells (PBMCs) in 100 to 150 mL anticoagulant peripheral blood obtained from a healthy volunteer were isolated with Ficoll solution. After the collected PBMCs were incubated at 37° C. for 2 hours and the non-adherent PBLs were removed, the adherent monocytes were cultured in the presence of recombinant human granulocyte macrophage colony stimulating factor (rhGM-CSF) and recombinant human interleukin-4 (rhIL-4). […] After 24 hours' incubation, the collected cells with lentivirus-containing medium removed were again incubated in a fresh medium containing 50 ng/ml rhIL-4, 100 ng/ml rh GM-CSF, 100 U/ml IFN-γ and 100 U/ml CD40L in an incubator under 37° C. and 5% CO2 for 48 to 72 hours, so as to induce mature DCs, and then the DCs infected with lentivirus were observed under the fluorescence microscope. The collected mature DCs were washed with physiological saline three times and diluted with the physiological saline to a concentration of (4.0±0.5)×10^7 cells/ml for use. The subcutaneous tumor-modeled NOD/SCID mice obtained in 6.4 of the example 6 were randomly divided into seven groups as below, with 6 mice per group.
The vital signs of the mice were observed after administration, and the major axis (a) and the minor axis (b) of a tumor were measured by a vernier caliper every 2 days for calculation of tumor size according to a formula of a×b×b/2, with the weight change and survival rate observed and recorded.

The subject of experiment [4] is CD8^+ T cells. The experiment can be described thus: IFN-γ ELISPOT of CD8+ T cell immune response activated by polypeptide. It is filed as cell-based, human. As to conditions: for Conclusion (immunogenicity): ELISPOT spot ratio >2 criterion; for Number of spots produced by mutant polypeptide or each of its variants / Number of spots produced by wild-type polypeptide: IFN-γ ELISPOT, T cells activated by the listed polypeptide; for Number of spots produced by mutant polypeptide or each of its variants: T2 cells loaded with mutant polypeptide; for Number of spots produced by wild-type polypeptide: T2 cells loaded with wild-type polypeptide FILDGSYSV; for Ratio of mutant polypeptide to wild-type polypeptide: spot number ratio, >2 indicates immunogenicity. The source says:
The mutant polypeptide with immunogenicity should meet the following requirement:
Spots number of mutant polypeptide/spots number of wild-type polypeptide>2,
After specifically recognizing the complex of HLA-A0201 and the mutant polypeptide, the polypeptide specific-CD8^+T cell is activated and secretes IFN-γ, which will be captured by the firstly antibody coated on the ELISPOT plate and further be bound by an enzyme-coupled secondly antibody, and finally developed by addition of a substrate which can be catalyzed by the enzyme, thus forming colored spots. The number of spots produced represents the number of the IFN-γ secreted by the activated CD8^+T cell.

As for “FILDGLYSL [mutant polypeptide's variant, Leucine at position 9]”, in experiment [1], the Mouse survival period result was “prolonging the mouse survival period” and the Tumor growth result was “mitigating tumor growth significantly”. Further, in experiment [2], the Mouse survival period entry is “prolonging mouse survival period effectively” and the Tumor growth entry is on record as “inhibiting tumor growth”. Besides, in experiment [3], the Mouse survival period result was “prolonging mouse survival period effectively” and the Tumor growth entry is listed as “inhibiting tumor growth”. Also, in experiment [4], the “Conclusion (immunogenicity)” value was “immunogenic”, the “Number of spots produced by mutant polypeptide or each of its variants” value (from here on “Number of spots produced … of its variants”) is listed as 313, the “Number of spots produced by wild-type polypeptide” value (“Number … by wild-type polypeptide” below) was 37 and the “Ratio of mutant polypeptide to wild-type polypeptide” value (from here on “Ratio of mutant polypeptide”) amounted to 8.46.

As to “FILDGLYSV [mutant polypeptide from COL21A1, Serine at position 45 mutated into Leucine]”, in experiment [1], the Mouse survival period result was “prolonging the mouse survival period” and the Tumor growth result is on record as “mitigating tumor growth significantly”. For the same sequence, in experiment [2], the Mouse survival period result is listed as “prolonging mouse survival period effectively” and the Tumor growth result is given as “inhibiting tumor growth”. Moreover, in experiment [3], the Mouse survival period result is on record as “prolonging mouse survival period effectively” and the Tumor growth entry is recorded as “inhibiting tumor growth”. Also, in experiment [4], the “Conclusion (immunogenicity)” value is given as “immunogenic”, the “Number of spots produced … of its variants” value came to 296, the “Number … by wild-type polypeptide” value was 29 and the “Ratio of mutant polypeptide” value turned out to be 10.2.

As to “FLLDGLYSL [mutant polypeptide's variant, Leucine at positions 2 and 9]”, in experiment [1], the Mouse survival period entry was “prolonging the mouse survival period” and the Tumor growth entry is “mitigating tumor growth significantly”. In experiment [2], the Mouse survival period result was “prolonging mouse survival period effectively” and the Tumor growth result is recorded as “inhibiting tumor growth”. In addition, in experiment [3], the Mouse survival period result is “prolonging mouse survival period effectively” and the Tumor growth result was “inhibiting tumor growth”. Also, in experiment [4], the “Conclusion (immunogenicity)” value is given as “immunogenic”, the “Number of spots produced … of its variants” value was 279, the “Number … by wild-type polypeptide” value stood at 24 and the “Ratio of mutant polypeptide” value is 11.62.

As to “FLLDGLYSV [mutant polypeptide's variant, Leucine at position 2]”, in experiment [1], the Mouse survival period entry is “prolonging the mouse survival period” and the Tumor growth result was “mitigating tumor growth significantly”. Besides, in experiment [2], the Mouse survival period entry is “prolonging mouse survival period effectively” and the Tumor growth entry is recorded as “inhibiting tumor growth”. Besides, in experiment [3], the Mouse survival period result is “prolonging mouse survival period effectively” and the Tumor growth result is given as “inhibiting tumor growth”. Also, in experiment [4], the “Conclusion (immunogenicity)” value is listed as “immunogenic”, the “Number of spots produced … of its variants” value came to 301, the “Number … by wild-type polypeptide” value is listed as 42 and the “Ratio of mutant polypeptide” value turned out to be 7.17.

As to FMLDGLYSL, in experiment [1], the Mouse survival period result is “prolonging the mouse survival period” and the Tumor growth entry is recorded as “mitigating tumor growth significantly”. Besides, in experiment [2], the Mouse survival period entry was “prolonging mouse survival period effectively” and the Tumor growth result is given as “inhibiting tumor growth”. Moreover, in experiment [3], the Mouse survival period entry is recorded as “prolonging mouse survival period effectively” and the Tumor growth entry is given as “inhibiting tumor growth”. In experiment [4], the “Conclusion (immunogenicity)” value is given as “immunogenic”, the “Number of spots produced … of its variants” value is listed as 319, the “Number … by wild-type polypeptide” value is recorded as 35 and the “Ratio of mutant polypeptide” value amounted to 9.11.

In the case of FMLDGLYSV, in experiment [1], the Mouse survival period result was “prolonging the mouse survival period” and the Tumor growth entry is given as “mitigating tumor growth significantly”. In experiment [2], the Mouse survival period result is “prolonging mouse survival period effectively” and the Tumor growth result is on record as “inhibiting tumor growth”. Besides, in experiment [3], the Mouse survival period result is “prolonging mouse survival period effectively” and the Tumor growth entry is “inhibiting tumor growth”. Also, in experiment [4], the “Conclusion (immunogenicity)” value is on record as “immunogenic”, the “Number of spots produced … of its variants” value worked out at 335, the “Number … by wild-type polypeptide” value was 50 and the “Ratio of mutant polypeptide” value is on record as 6.7.

The values above are taken from US11213563B2, “Polypeptide and use thereof” (Genoimmune Therapeutics Co., Ltd., priority 2016, dated 2022).
